{
  "source": "paper PMC7075836",
  "about": "(European Journal of Nuclear Medicine and Molecular Imaging, 2020)",
  "key": {"α5β1": {"biological_target": "T1, α5β1 (Homo sapiens, UniProt P05556+P08648)", "T1 construct": "incubating a small molecule RGD-mimetic-tritiated radioligand with soluble integrin protein", "T1 sequence (P08648 42-995 limits assumed)": "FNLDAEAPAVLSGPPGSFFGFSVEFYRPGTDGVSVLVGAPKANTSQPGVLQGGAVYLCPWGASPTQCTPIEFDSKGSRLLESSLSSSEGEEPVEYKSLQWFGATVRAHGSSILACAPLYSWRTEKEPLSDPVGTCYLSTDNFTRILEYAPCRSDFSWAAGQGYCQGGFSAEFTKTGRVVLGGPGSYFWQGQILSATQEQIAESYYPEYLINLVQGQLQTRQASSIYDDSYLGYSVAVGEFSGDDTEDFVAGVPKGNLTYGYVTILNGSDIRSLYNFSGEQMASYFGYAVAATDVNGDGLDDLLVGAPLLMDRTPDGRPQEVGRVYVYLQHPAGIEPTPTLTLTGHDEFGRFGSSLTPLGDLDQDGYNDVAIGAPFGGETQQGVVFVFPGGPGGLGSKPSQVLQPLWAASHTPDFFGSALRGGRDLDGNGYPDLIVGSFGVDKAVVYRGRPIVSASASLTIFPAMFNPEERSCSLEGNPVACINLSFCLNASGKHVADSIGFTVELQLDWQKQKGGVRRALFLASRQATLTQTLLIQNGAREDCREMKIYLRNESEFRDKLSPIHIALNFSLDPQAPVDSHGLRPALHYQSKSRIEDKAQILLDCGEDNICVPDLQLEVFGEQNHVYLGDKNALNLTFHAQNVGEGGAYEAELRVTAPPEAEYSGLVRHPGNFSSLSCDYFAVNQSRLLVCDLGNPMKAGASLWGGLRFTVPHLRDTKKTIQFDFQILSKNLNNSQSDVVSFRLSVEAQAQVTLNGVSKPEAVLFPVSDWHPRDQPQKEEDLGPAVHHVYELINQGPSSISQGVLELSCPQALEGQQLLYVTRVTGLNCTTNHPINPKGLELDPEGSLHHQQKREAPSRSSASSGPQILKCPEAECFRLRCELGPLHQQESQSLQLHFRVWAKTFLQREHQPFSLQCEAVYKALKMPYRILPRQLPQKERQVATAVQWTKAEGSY", "T1 sequence (P05556 21-728 limits assumed)": "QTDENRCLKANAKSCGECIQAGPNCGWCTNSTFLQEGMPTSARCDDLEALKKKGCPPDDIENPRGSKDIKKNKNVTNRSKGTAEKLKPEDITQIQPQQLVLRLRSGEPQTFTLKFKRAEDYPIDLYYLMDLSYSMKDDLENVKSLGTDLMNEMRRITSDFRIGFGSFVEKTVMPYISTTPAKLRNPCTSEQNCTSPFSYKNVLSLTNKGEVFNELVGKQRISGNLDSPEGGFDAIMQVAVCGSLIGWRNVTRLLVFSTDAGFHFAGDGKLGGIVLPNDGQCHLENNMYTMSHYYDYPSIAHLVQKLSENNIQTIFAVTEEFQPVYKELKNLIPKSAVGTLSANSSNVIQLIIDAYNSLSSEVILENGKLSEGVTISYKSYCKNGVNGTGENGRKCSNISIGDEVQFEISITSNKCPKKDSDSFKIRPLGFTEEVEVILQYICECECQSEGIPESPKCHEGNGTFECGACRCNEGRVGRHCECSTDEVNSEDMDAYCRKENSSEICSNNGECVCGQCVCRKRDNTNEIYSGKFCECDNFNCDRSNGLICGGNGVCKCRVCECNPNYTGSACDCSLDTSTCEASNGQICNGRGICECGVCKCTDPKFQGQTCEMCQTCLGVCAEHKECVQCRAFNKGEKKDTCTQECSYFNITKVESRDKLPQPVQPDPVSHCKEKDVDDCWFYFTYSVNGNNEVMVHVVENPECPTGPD", "test": "biochemical", "conditions": "read-out: inhibition of binding"}, "α8β1": {"biological_target": "T2, α8β1 (Homo sapiens, UniProt P05556+P53708)", "T2 construct": "incubating a small molecule RGD-mimetic-tritiated radioligand with soluble integrin protein", "T2 sequence (P53708 39-1012 limits assumed)": "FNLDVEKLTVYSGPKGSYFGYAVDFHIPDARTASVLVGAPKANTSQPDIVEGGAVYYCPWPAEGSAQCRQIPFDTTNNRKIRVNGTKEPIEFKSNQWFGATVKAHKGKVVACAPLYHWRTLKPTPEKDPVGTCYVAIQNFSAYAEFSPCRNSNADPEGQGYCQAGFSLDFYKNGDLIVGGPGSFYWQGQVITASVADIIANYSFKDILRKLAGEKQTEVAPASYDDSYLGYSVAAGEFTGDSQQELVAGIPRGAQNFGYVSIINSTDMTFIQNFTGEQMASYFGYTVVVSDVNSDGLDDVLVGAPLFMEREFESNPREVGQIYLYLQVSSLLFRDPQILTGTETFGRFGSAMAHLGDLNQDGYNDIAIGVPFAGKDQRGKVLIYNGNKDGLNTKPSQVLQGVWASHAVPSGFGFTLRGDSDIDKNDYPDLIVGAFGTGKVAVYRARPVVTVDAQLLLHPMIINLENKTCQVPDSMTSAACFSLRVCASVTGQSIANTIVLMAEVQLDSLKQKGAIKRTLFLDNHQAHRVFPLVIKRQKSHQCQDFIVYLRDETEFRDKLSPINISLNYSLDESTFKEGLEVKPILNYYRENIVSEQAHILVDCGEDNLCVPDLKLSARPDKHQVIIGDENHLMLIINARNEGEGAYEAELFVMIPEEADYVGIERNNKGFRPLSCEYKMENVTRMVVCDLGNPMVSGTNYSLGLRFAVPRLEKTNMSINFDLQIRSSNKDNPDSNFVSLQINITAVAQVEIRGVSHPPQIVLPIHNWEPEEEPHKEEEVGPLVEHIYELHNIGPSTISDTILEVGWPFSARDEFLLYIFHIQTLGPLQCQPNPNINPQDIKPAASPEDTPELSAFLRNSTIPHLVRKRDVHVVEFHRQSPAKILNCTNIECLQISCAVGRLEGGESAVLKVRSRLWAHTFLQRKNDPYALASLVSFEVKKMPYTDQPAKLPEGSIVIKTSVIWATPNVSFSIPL", "T2 sequence (P05556 21-728 limits assumed)": "as the sequence (P05556 21-728 limits assumed) above", "test": "biochemical", "conditions": "read-out: inhibition of binding"}},
  "data": [
    {"smiles": "CC(C)C[C@H](NC(=O)[C@H](CC(=O)O)NC(=O)CNC(=O)[C@H](CCCNC(=N)N)NC(=O)[C@H](CC(C)C)NC(=O)[C@H](CC(N)=O)NC(=O)[C@@H]1CCCN1C(=O)[C@@H](NC(=O)[C@H](C)NC(=O)[C@@H](N)CC(N)=O)C(C)C)C(=O)N[C@@H](CCC(N)=O)C(=O)N[C@H](C(=O)N[C@@H](CC(C)C)C(=O)N[C@@H](C)C(=O)N[C@@H](CCC(N)=O)C(=O)N[C@@H](CCCCN)C(=O)N[C@H](C(=O)N[C@@H](C)C(=O)N[C@@H](CCCNC(=N)N)C(=O)N[C@H](C(N)=O)[C@@H](C)O)C(C)C)C(C)C", "note": "[A20FMDV2]", "values": [
      {"measurement": "inhibition at 1 µM", "setting": "α5β1", "value": "< 50", "unit": "%"},
      {"measurement": "inhibition at 1 µM", "setting": "α8β1", "value": "< 50", "unit": "%"}
    ]}
  ]
}
